Results reported in patent US10233188B2, “CDK2/4/6 inhibitors” (priority 2016, dated 2019).

Key:
CDK6/Cyclin D1 = CDK6/Cyclin D1 (Homo sapiens (Human), UniProt Q00534); assay: biochemical; details: CDK6_Ki (nM), non-phosphorylated CDK6/Cyclin D1, 2 mM ATP, Morrison fit
CDK2/Cyclin E1 = CDK2/Cyclin E1 (Homo sapiens (Human), UniProt P24941); assay: biochemical; details: CDK2_Ki (nM), phosphorylated CDK2/Cyclin E1, 150 μM ATP, Morrison tight-binding fit
Description: The assay was initiated with the addition of ATP, following a fifteen minutes pre-incubation of enzyme and inhibitor at room temperature in the reaction mixture. The reaction was stopped after 45 minutes at room temperature by the addition of 50 μL of 80 mM EDTA, pH 7.5.

Chain of CDK6/Cyclin D1 (Q00534 whole entry): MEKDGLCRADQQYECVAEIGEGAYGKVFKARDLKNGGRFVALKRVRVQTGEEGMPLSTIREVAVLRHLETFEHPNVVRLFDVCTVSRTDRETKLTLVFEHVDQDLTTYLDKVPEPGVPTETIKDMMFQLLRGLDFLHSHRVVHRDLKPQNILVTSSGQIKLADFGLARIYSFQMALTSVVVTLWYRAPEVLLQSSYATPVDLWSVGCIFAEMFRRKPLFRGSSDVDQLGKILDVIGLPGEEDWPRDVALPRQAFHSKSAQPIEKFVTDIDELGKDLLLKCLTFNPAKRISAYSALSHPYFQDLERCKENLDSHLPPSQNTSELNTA
Chain of CDK6/Cyclin D1 (P24385 whole entry partner): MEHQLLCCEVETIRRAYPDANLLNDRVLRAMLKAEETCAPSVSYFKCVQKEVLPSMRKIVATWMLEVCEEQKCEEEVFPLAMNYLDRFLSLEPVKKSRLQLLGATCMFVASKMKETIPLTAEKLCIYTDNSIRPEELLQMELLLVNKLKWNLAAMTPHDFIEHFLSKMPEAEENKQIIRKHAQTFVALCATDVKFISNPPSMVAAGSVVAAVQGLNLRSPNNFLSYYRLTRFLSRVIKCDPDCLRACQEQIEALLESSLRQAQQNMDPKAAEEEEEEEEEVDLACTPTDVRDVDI

Row | SMILES | Ki (CDK6/Cyclin D1) [nM] | Ki (CDK2/Cyclin E1) [nM]
1 | CS(=O)(=O)N1CCC(Nc2ncc3cc(CC(N)=O)c(=O)n([C@@H]4CCC[C@@H](O)C4)c3n2)CC1 (single isomer, unassigned) [Example 213, (+)-2-(8-[(1R*,3R*)-3-hydroxycyclohexyl]-2-{[1-(methylsulfonyl)piperidin-4-yl]amino}-7-oxo-7,8-dihydropyrido[2,3-d]pyrimidin-6-yl)acetamide] | 9.15 | 1.73
2 | CS(=O)(=O)N1CCC(Nc2ncc3cc(CC(N)=O)c(=O)n([C@H]4CCC[C@H](O)C4)c3n2)CC1 (single isomer, unassigned) [Example 214, (−)-2-(8-[(1R*,2R*)-3-hydroxycyclohexyl]-2-{[1-(methylsulfonyl)piperidin-4-yl]amino}-7-oxo-7,8-dihydropyrido[2,3-d]pyrimidin-6-yl)acetamide] | 83.3 | 27.8
3 | CS(=O)(=O)N1CCC(Nc2ncc3ccc(=O)n([C@@H]4C[C@@H](O)CC[C@H]4F)c3n2)CC1 (single isomer, unassigned) [Example 218, (−)-8-[(1S*,2S*,5R*)-2-fluoro-5-hydroxycyclohexyl]-2-{[1-(methylsulfonyl)piperidin-4-yl]amino}pyrido[2,3-d]pyrimidin-7(8H)-one] | 14.3 | 6.28
4 | CNS(=O)(=O)N1CCC(Nc2ncc3ccc(=O)n([C@H]4C[C@H](O)CC[C@@H]4F)c3n2)CC1 (single isomer, unassigned) [Example 219, (+)-4-({8-[(1S*,2S*,5R*)-2-fluoro-5-hydroxycyclohexyl]-7-oxo-7,8-dihydropyrido[2,3-d]pyrimidin-2-yl}amino)-N-methylpiperidine-1-sulfonamide] | 3.9 | 0.78
5 | CNS(=O)(=O)N1CCC(Nc2ncc3ccc(=O)n([C@@H]4C[C@@H](O)CC[C@H]4F)c3n2)CC1 (single isomer, unassigned) [Example 220, (−)-4-({8-[(1S*,2S*,5R*)-2-fluoro-5-hydroxycyclohexyl]-7-oxo-7,8-dihydropyrido[2,3-d]pyrimidin-2-yl}amino)-N-methylpiperidine-1-sulfonamide] | 18.3 | 7.46
6 | CC1(C)CC(Nc2ncc3cc(CCO)c(=O)n(C4CCCC4)c3n2)CCN1S(C)(=O)=O (single isomer, unassigned; (+)) [Example 162, (+)-8-cyclopentyl-2-{[2,2-dimethyl-1-(methylsulfonyl)piperidin-4-yl]amino}-6-(2-hydroxyethyl)pyrido[2,3-d]pyrimidin-7(8H)-one] | 12.3 | 3.92

The next compounds have a lower Ki (CDK6/Cyclin D1) than those just listed; values first:

Row | Ki (CDK6/Cyclin D1) [nM] | Ki (CDK2/Cyclin E1) [nM] | SMILES
7 | 2 | 0.55 | CS(=O)(=O)N1CCC(Nc2ncc3ccc(=O)n([C@H]4C[C@H](O)CC[C@@H]4F)c3n2)CC1 (single isomer, unassigned) [Example 217, (+)-8-[(1S*,2S*,5R*)-2-fluoro-5-hydroxycyclohexyl]-2-{[1-(methylsulfonyl)piperidin-4-yl]amino}pyrido[2,3-d]pyrimidin-7(8H)-one]
8 | 0.36 | 0.13 | C[C@@H]1[C@H](O)CCC[C@H]1n1c(=O)ccc2cnc(NC3CCN(S(C)(=O)=O)CC3)nc21 (single isomer, unassigned) [Example 221, (−)-8-[(1S*,2R*,3S*)-3-hydroxy-2-methylcyclohexyl]-2-{[1-(methylsulfonyl)piperidin-4-yl]amino}pyrido[2,3-d]pyrimidin-7(8H)-one]
9 | 0.11 | 0.16 | Cc1cc2cnc(NC3CCN(S(=O)(=O)C4CCS(=O)(=O)C4)CC3)nc2n([C@@H]2CCC[C@@]2(C)O)c1=O (single isomer, unassigned; isomer a) [Example 106, (−)-2-[(1-{[(3ξ)-1,1-dioxidotetrahydrothiophen-3-yl]sulfonyl}piperidin-4-yl)amino]-8-[(1R*,2R*)-2-hydroxy-2-methylcyclopentyl]-6-methylpyrido[2,3-d]pyrimidin-7(8H)-one-Isomer A]
